We go through 48 compounds from ChEMBL document CHEMBL1143213, “Anticancer activity of (1,2,3,5-tetrahydro-4,1-benzoxazepine-3-yl)-pyrimidines and -purines against the MCF-7 cell line: Preliminary cDNA microarray studies” (Bioorg Med Chem Lett, 2008).

pIC50: −log10 of the molar value. Calls of active or inactive are those of the source. No cut-off for these calls is given here.

The test system of one test is MCF7. In words: Down regulation of RAC1 gene expression in human MCF7 cells by microarray. Type of test: functional, cell-based.
Details: not given
Consider `O=[N+]([O-])c1ccc(S(=O)(=O)N2CC(n3cnc4ncnc(Sc5ccccc5)c43)OCc3ccccc32)cc1` (stereo unspecified), for which the result was Active.

In the next test the test system is MCF7. As to the kind of experiment: Induction of ERN1 gene expression in human MCF7 cells by microarray. Type of test: functional, cell-based.
Details: not given
For `O=C(OCC1c2ccccc2-c2ccccc21)N1CC(n2cnc3c(Cl)ncnc32)OCc2ccccc21` (racemic), the result was Active.

In another test the test system is MCF7. In words: Induction of GP132 gene expression in human MCF7 cells by microarray. Format: functional, cell-based.
Details: not given
As for `O=C(OCC1c2ccccc2-c2ccccc21)N1CC(n2cnc3c(Cl)ncnc32)OCc2ccccc21` (racemic), the outcome was Active.

For the next test, the system named is MCF7. In words: Antiproliferative activity against human MCF7 cells. Format: functional, cell-based. The conditions noted are these: Homo sapiens, MCF7.
The pIC50 is the IC50 on a negative log10 scale, so that one unit is a factor of ten. A low value points to a large IC50. In turn, `O=c1cc[nH]c(=O)n1C1CN(S(=O)(=O)c2ccc([N+](=O)[O-])cc2)c2ccccc2CO1` (stereo unspecified) showed a negative logarithm of the IC50 (pIC50) of 4.35.
On the same count and under the same terms, to `O=c1[nH]c(=O)n(C2CNc3ccccc3CO2)cc1F` (stereo unspecified) belongs less than 4.00.
For the compound `COC(CN(c1ccccc1CO)S(=O)(=O)c1ccccc1[N+](=O)[O-])n1cc(F)c(=O)[nH]c1=O` (stereo unspecified), the negative-log IC50 (pIC50) was 4.04.
On to `Ic1ncnc2ncn(C3COc4ccccc4CO3)c12` (stereo unspecified), for which the pIC50 was 5.90. This pIC50 lies 1.86 log units higher than the previous one.
In the case of `COC(CN(c1ccccc1CO)S(=O)(=O)c1ccc([N+](=O)[O-])cc1)n1ccc(=O)[nH]c1=O` (stereo unspecified), the pIC50 was 4.34.
In turn, `COC(CN(c1ccccc1CO)S(=O)(=O)c1ccccc1[N+](=O)[O-])n1ccc(=O)[nH]c1=O` (stereo unspecified) gave a negative-log IC50 (pIC50) of 4.19.
On the same count and under the same terms, to `O=c1ccn(C2COc3ccccc3CO2)c(=O)[nH]1` (stereo unspecified) belongs 5.90.
The same measure, in the same setting: to `Clc1nc(Cl)c2ncn(C3COc4ccccc4CO3)c2n1` (stereo unspecified) belongs 5.90; to `O=c1[nH]cc(F)c(=O)n1C1CNc2ccccc2CO1` (stereo unspecified), 4.14; to `O=[N+]([O-])c1ccc(S(=O)(=O)N2CC(n3cnc4ncnc(Cl)c43)OCc3ccccc32)cc1` (stereo unspecified), 5.91.
Same read-out and setting: to `Clc1ncnc2c1ncn2C1COc2ccccc2CO1` (stereo unspecified) belongs 5.90; to `O=[N+]([O-])c1ccccc1S(=O)(=O)N1CC(n2cnc3c(Cl)ncnc32)OCc2ccccc21` (stereo unspecified), 5.68.
As for `Ic1ncnc2c1ncn2C1COc2ccccc2CO1` (stereo unspecified), the pIC50 is 5.90.
Still for that read-out and setting: to `COC(CN(c1ccccc1CO)S(=O)(=O)c1ccc([N+](=O)[O-])cc1)n1cnc2c(Cl)ncnc21` (stereo unspecified) belongs 4.73.
`O=c1[nH]c(=O)n(C2CN(S(=O)(=O)c3ccc([N+](=O)[O-])cc3)c3ccccc3CO2)cc1F` (stereo unspecified): the pIC50 is 4.71.
Regarding `Clc1ncnc2ncn(C3COc4ccccc4CO3)c12` (stereo unspecified), the negative logarithm of the IC50 (pIC50) is 5.90. Compared with the last compound, the pIC50 is 1.19 log units higher.
On the same count and under the same terms, to `COC(CN(C(=O)c1ccccc1)c1ccccc1CO)n1cc(F)c(=O)[nH]c1=O` (stereo unspecified) belongs 4.79; to `COC(CN(c1ccccc1CO)S(=O)(=O)c1ccccc1N)n1cc(F)c(=O)[nH]c1=O` (stereo unspecified), less than 4.00; to `Clc1ncnc2c1ncn2C1CSc2ccccc2CO1` (stereo unspecified), 5.90.
For the compound `Clc1ncnc2ncn(C3CSc4ccccc4CO3)c12` (stereo unspecified), the pIC50 is 5.90.
The same measure, in the same setting: the figure for `FC(F)(F)c1ncnc2c1ncn2C1COc2ccccc2CO1` (stereo unspecified) is 5.90.
Compound `O=c1ccn(C2CN(S(=O)(=O)c3ccccc3[N+](=O)[O-])c3ccccc3CO2)c(=O)[nH]1` (stereo unspecified) had a pIC50 of 4.35. This pIC50 is 1.55 log units lower than that of the compound before.
Same read-out and setting: the figure for `O=[N+]([O-])c1ccc(S(=O)(=O)N2CC(n3cnc4ncnc(O)c43)OCc3ccccc32)cc1` (stereo unspecified) is less than 4.00; for `O=[N+]([O-])c1ccc(S(=O)(=O)N2CC(n3cnc4ncnc(Sc5ccccc5)c43)OCc3ccccc32)cc1` (stereo unspecified) it is 6.07; for `Nc1ccc(S(=O)(=O)N2CC(n3cc(F)c(=O)[nH]c3=O)OCc3ccccc32)cc1` (stereo unspecified) it is 4.84.
As to `COC(CNc1ccccc1CO)n1cc(F)c(=O)[nH]c1=O` (stereo unspecified), the negative logarithm of the IC50 (pIC50) is 4.44. This pIC50 lies 0.40 log units lower than the previous one.
Take `c1ccc(Sc2ncnc3ncn(C4CNc5ccccc5CO4)c23)cc1` (stereo unspecified): the negative-log IC50 (pIC50) was 4.31.
Same read-out and setting: to `O=C(OCC1c2ccccc2-c2ccccc21)N1CC(n2cnc3ncnc(O)c32)OCc2ccccc21` (stereo unspecified) belongs 4.27; to `O=C(OCC1c2ccccc2-c2ccccc21)N1CC(n2cnc3c(Cl)ncnc32)OCc2ccccc21` (racemic), 6.17.
Regarding `O=c1[nH]c(=O)n(C2CN(S(=O)(=O)c3ccccc3[N+](=O)[O-])c3ccccc3CO2)cc1F` (stereo unspecified), the pIC50 was 4.71.
In turn, `COC(CN(c1ccccc1CO)S(=O)(=O)c1ccc([N+](=O)[O-])cc1)n1cc(F)c(=O)[nH]c1=O` (stereo unspecified) gave a pIC50 of 4.26.
As to `COc1ccc2c(c1)COC(n1cc(F)c(=O)[nH]c1=O)CO2` (stereo unspecified), the negative logarithm of the IC50 (pIC50) was 5.90. Compared with the last compound, the pIC50 is 1.64 log units higher.
Still for that read-out and setting: the figure for `O=C(OCC1c2ccccc2-c2ccccc21)N1CC(n2cnc3ncnc(Cl)c32)OCc2ccccc21` (stereo unspecified) is 6.08.
As for `O=[N+]([O-])c1ccccc1S(=O)(=O)N1CC(n2cnc3ncnc(Sc4ccccc4)c32)OCc2ccccc21` (stereo unspecified), the pIC50 is 5.59.
Compound `Nc1ccccc1S(=O)(=O)N1CC(n2cnc3ncnc(Cl)c32)OCc2ccccc21` (stereo unspecified) had a negative-log IC50 (pIC50) of 5.04.
Consider `O=c1ccn(C2CN(S(=O)(=O)c3ccc([N+](=O)[O-])cc3)c3ccccc3CO2)c(=O)[nH]1` (stereo unspecified), for which the pIC50 is 4.40. Compared with the last compound, the pIC50 is 0.64 log units lower.
On the same count and under the same terms, the figure for `O=[N+]([O-])c1ccccc1S(=O)(=O)N1CC(n2cnc3ncnc(Cl)c32)OCc2ccccc21` (stereo unspecified) is 6.04.
The compound `O=c1[nH]cc(F)c(=O)n1C1CN(S(=O)(=O)c2ccccc2[N+](=O)[O-])c2ccccc2CO1` (stereo unspecified) had a pIC50 of 4.65.
`O=[N+]([O-])c1ccccc1S(=O)(=O)N1CC(n2cnc3ncnc(O)c32)OCc2ccccc21` (stereo unspecified) gave a pIC50 of 4.71.
On the same count and under the same terms, to `O=[N+]([O-])c1ccc(S(=O)(=O)N2CC(n3cnc4c(Cl)ncnc43)OCc3ccccc32)cc1` (stereo unspecified) belongs 5.56; to `Nc1ccccc1S(=O)(=O)N1CC(n2cc(F)c(=O)[nH]c2=O)OCc2ccccc21` (stereo unspecified), 4.26.
Still for that read-out and setting: to `O=c1[nH]cc(F)c(=O)n1C1CN(S(=O)(=O)c2ccc([N+](=O)[O-])cc2)c2ccccc2CO1` (stereo unspecified) belongs 4.70; to `O=S1(=O)CC(n2cnc3c(Cl)ncnc32)OCc2ccccc21` (stereo unspecified), 5.90; to `Clc1nc(Cl)c2c(ncn2C2COc3ccccc3CO2)n1` (stereo unspecified), 5.90.
The same measure, in the same setting: to `Nc1ccccc1S(=O)(=O)N1CC(n2c(=O)[nH]cc(F)c2=O)OCc2ccccc21` (stereo unspecified) belongs 4.36; to `O=c1cc[nH]c(=O)n1C1CN(S(=O)(=O)c2ccccc2[N+](=O)[O-])c2ccccc2CO1` (stereo unspecified), 4.29; to `COC(CN(c1ccccc1CO)S(=O)(=O)c1ccc([N+](=O)[O-])cc1)n1c(=O)cc[nH]c1=O` (stereo unspecified), 4.26.

Staying with this test, now noted: mcf7.
`COC(CN(c1ccccc1CO)S(=O)(=O)c1ccccc1[N+](=O)[O-])n1cnc2c(Cl)ncnc21` (stereo in doubt; 51): the negative logarithm of the IC50 (pIC50) was 4.95.
